Source: US8097624B2, “Cycloalkyl derivatives of 3-hydroxy-4-pyridinones” (Apotex Inc., priority 2006, dated 2012)

How the values were obtained:
[1] = Metal complexation constants, Zn system; type: binding
Method: (§1) In a typical experiment, the sample solution was prepared by the following method: Apo6619 (31.91 mg) was weighed into a 25-ml beaker followed by the addition of 0.1 M NaCl (18.9 ml). The mixture was sonicated for 10 minutes to give a clear colorless solution. Aluminum stock solution (atomic absorption standard, Aldrich, 971 μl, 3.59×10^−5 mole) was pipetted into the solution followed by the addition of 1.000 N NaOH (229 μl) to give pH 8.56. The molar ratio between the total Aluminum and the total Apo6619 was 1:4. For M^2+ metals, a molar ratio of 1:3 was used. Nitrogen was allowed to bubble through the solution. The mixture was allowed to equilibrate at 22° C. for 2 hours. 1.000 N Hydrochloric acid (264 μl) was then added to the solution to give pH 2.20. The solution was allowed to equilibrate at 22° C. for 1 hour.
(§2) The solution was titrated against 1.000 N NaOH at 22° C. to reach pH 11.0. For each addition of base, the solution was allowed to equilibrate until a constant pH reading was reached. The volume of the base added and the pH reading were then recorded for each measurement. 93 measurements were used in the experiment.
(§3) The data set of pH vs. base volume was analyzed using Hyperquad 2000. Given the model: L^−+H^+ ? LH (pKa1), LH+H^+ ? LH2^+ (pKa2), Al^3++L^− ? ^AlL^2+ (K1), AlL^2++L^− ? AlL2^+ (K2), AlL2^++L^− ? AlL3 (K3), and β3=K1K2K3, the stepwise formation constants for Al-Apo6619 system were optimized as log K1=12.6(2); log K2=9.2(1); log K3=8.4(1); log β3=30.2(2).
(§4) pM^n+ is defined as −log [M(H2O)m]^n+ at physiological conditions, i.e.: pH 7.4, a ligand concentration of 10 μM, and a metal concentration of 1 μM.
(§5) To calculate pM^n+ for a MLn system, βn and pKa values are needed (βn are the formation constants for M^n++n L^− ? MLn; pKa are the equilibrium constants for L^−+n H^+ ? LHn^(n−1)+). The pM^n+ can be calculated by using Hyss software (Hyperquad Stimulation and Speciation software: HYSS2© 2000 Protonic Sofware).

[2] = Metal complexation constants, Cu system; type: binding
Method: as §1, §2, §3, §4, §5

[3] = Metal complexation constants, Mn system; type: binding
Method: as §1, §2, §3, §4, §5

[4] = Metal complexation constants, Al system (potentiometric titration; pM by Hyss); type: binding; settings: pH 7.4, ligand 10 μM, metal 1 μM
Method: as §1, with “1.000 N Hydrochloric acid (264 μl) was then added to the solution to give pH 2.20. The solution was allowed to equilibrate at 22° C. for 1 hour.” left out
The solution was titrated against 1.000 N NaOH at 22° C. to reach pH 11.0. For each addition of base, the solution was allowed to equilibrate until a constant pH reading was reached. The volume of the base added and the pH reading were then recorded for each measurement. […]
The data set of pH vs. base volume was analyzed using Hyperquad 2000. […]
as §5

[5] = Metal complexation constants, Mg system; type: binding
Method: as §1, §2, §3, §4, §5

[6] = Metal complexation constants, Ca system; type: binding
Method: as §1, §2, §3, §4, §5

[7] = Drug Metab. Dispo. 1992; cited from earlier work
[8] = pH 7.4, ligand 10 μM, metal 1 μM

Question: With CNC(=O)c1c(O)c(=O)cc(C)n1C1CC1 [Apo6619, 1-Cyclopropyl-3-hydroxy-6-methyl-4-oxo-1,4-dihydro-pyridine-2-carboxylic Acid Methylamide] as the molecule, how does the “log K1 Zn(II)” value ([1]; log scale) read?
Answer: The value was 6.3.

Question: And the “log K2 Zn(II)” value ([1]; log scale)?
Answer: The value was 5.8.

Question: What about the “log β2 Zn(II)” value ([1]; log scale) of the same molecule?
Answer: Its value is 12.1.

Question: And the “PM Zn(II)” value [1, 8]?
Answer: Its value is 6.4.

Question: And the “log K1 Cu(II)” value ([2]; log scale)?
Answer: The value was 8.9.

Question: And the “log K2 Cu(II)” value ([2]; log scale)?
Answer: The value was 7.7.

Question: What about the “log β2 Cu(II)” value ([2]; log scale) of the same molecule?
Answer: The value was 16.6.

Question: And the “PM Cu(II)” value [2, 8]?
Answer: The value was 10.

Question: And the “log K1 Mn(II)” value ([3]; log scale)?
Answer: Its value is 5.1.

Question: What about the “log K2 Mn(II)” value ([3]; log scale) of the same molecule?
Answer: The value was 4.3.

Question: What about the “log β2 Mn(II)” value ([3]; log scale) of the same molecule?
Answer: The value was 9.4.

Question: What about the “PM Mn(II)” value [3, 8] of the same molecule?
Answer: Its value is 6.0.

Question: What about the “PM Al(III)” value [4] of the same molecule?
Answer: Its value is 13.9.

Question: And the “log K1 Mg(II)” value ([5]; log scale)?
Answer: The value was 4.1.

Question: What about the “log K2 Mg(II)” value ([5]; log scale) of the same molecule?
Answer: Its value is 3.2.

Question: What about the “log β2 Mg(II)” value ([5]; log scale) of the same molecule?
Answer: The value was 7.3.

Question: What about the “PM Mg(II)” value [5, 8] of the same molecule?
Answer: Its value is 6.0.

Question: And the “log K1 Ca(II)” value ([6]; log scale)?
Answer: Its value is 3.

Question: And the “log K2 Ca(II)” value ([6]; log scale)?
Answer: The value was 2.1.

Question: What about the “log β2 Ca(II)” value ([6]; log scale) of the same molecule?
Answer: Its value is 5.1.

Question: What about the “PM Ca(II)” value [6, 8] of the same molecule?
Answer: Its value is 6.0.

Question: For Cc1c(O)c(=O)ccn1C [deferiprone, 1,2-dimethyl-3-hydroxy-4-pyridinone, reference compound], which “administered dose recovered in the urine as the non-chelating O-glucuronide” value [7] is on record?
Answer: Its value is “more than 85%”.
